Laboratory results taken from patent US10376520B2, “Methods for the treatment of cardiovascular disorders” (Galapagos NV, priority 2015, dated 2019).

Columns and labels:
RA patients = assay: Plasma PCSK9 concentration (ELISA), Study 4; assay type: in vivo, human; details: for PCSK9 level, 4 weeks CFB: 4 weeks change from baseline
Experimental: Randomized double-blind, placebo-controlled add on study in subjects with active RA who have an inadequate response to MTX monotherapy, in combination with methotrexate, administered for 4 weeks in the treatment of subjects with active rheumatoid arthritis who have an inadequate response to methotrexate alone.
Compound 1 (dosed as a [Compound 1:HCl:3H2O]) capsules administered orally in 30 mg, 75 mg, 150 mg, or 300 mg doses per day for 4 weeks.
Plasma PCSK9 concentration was determined using a commercial available ELISA kit from R&D systems (614 McKinley Place NE, Minneapolis, Minn. 55413, USA) according to manufacturer's instruction. Catalogue number DPC900, lot number used: 321050.

[1] = tested on: healthy volunteers, and patients suffering from inflammatory diseases; assay: Lipid profile after oral administration of Compound 1 in humans (summary over the studies); assay type: in vivo, human
Experimental: When Compound 1 was administered orally in humans, an unexpected change in the lipid profile was observed.
In contrast, whereas Compound 1 raised the low [total cholesterol] levels, an unexpected disproportionate rise in blood of [HDL] vs [LDL] was observed. In particular, [HDL] levels of 5-23% compared to initial levels were seen. Moreover, this rise in [HDL] was substantially higher than the corresponding increases in [LDL] levels. In particular between 1.1 and 4 fold higher increases in [HDL] vs. [LDL] were seen.
Typically, in a recent treatment study with Tofacitinib, a JAK inhibitor for 6 weeks at a dose of 10 mg bid in RA patient, the atherogenic index was unchanged before and after treatment at about 3.5 (Charles-Schoeman et al., 2015) thus leaving the patient at an increased cardiovascular risk before and after treatment.
Furthermore, this effect was sustained over at least 12 weeks, and at least 24 weeks and were observed over a dose range of 50-200 mg administered either twice daily (b.i.d) or once a day (q.d.).
Additionally, this effect was seen both in healthy volunteers, and patients suffering from inflammatory diseases (for example RA and Crohn's disease).

## O=C(Nc1nc2cccc(-c3ccc(CN4CCS(=O)(=O)CC4)cc3)n2n1)C1CC1 [Compound 1, cyclopropanecarboxylic acid {5-[4-(1,1-dioxo-thiomorpholin-4-ylmethyl)-phenyl]-[1,2,4]triazolo[1,5-a]pyridin-2yl}-amide]
RA patients; 30 mg q.d.
  PCSK9 level, 4 weeks CFB: 6.8%
  PCSK9 level, Baseline: 282.1 ng/mL
  PCSK9 level, week 4: 296.9 ng/mL
RA patients; 75 mg q.d.
  PCSK9 level, 4 weeks CFB: 11.4%
  PCSK9 level, Baseline: 277.0 ng/mL
  PCSK9 level, week 4: 292.4 ng/mL
RA patients; 150 mg q.d.
  PCSK9 level, 4 weeks CFB: 11.6%
  PCSK9 level, Baseline: 264.4 ng/mL
  PCSK9 level, week 4: 294.6 ng/mL
RA patients; 300 mg q.d.
  PCSK9 level, 4 weeks CFB: 10.4%
  PCSK9 level, Baseline: 261.7 ng/mL
  PCSK9 level, week 4: 291.2 ng/mL
[1]; administered orally in humans
  rise in [HDL] levels compared to initial levels: 5-23%
[1]; doses ranging from 50 mg to 200 mg (once or twice daily) for a period of at least 4 weeks
  atherogenic index: drop of the atherogenic index
